Reference: US9145436B2 (priority 2010, dated 2015)
Like-named read-outs stand apart in the source and are kept apart here.

Columns and labels:
[1] = tested on: IL-12 production in J774 cells; experiment: Cytokine production in stimulated J774 cells, IL-12 (ELISA); type: cell-based; details: Normal (LPS 0.1 μg/mL)
Protocol: (§1) Various analogs were compared in vitro to determine key properties. Antibacterial effect was determined in representative Gram negative (E. coli) and positive (S. aureus) organisms using the method of example 16. Effects on lung inflammation were compared using the method of example 32. BALF (Bronchoalveolar Lavage Fluid) TNFa levels are determined by ELISA. In vitro toxicity is determined by growth inhibition of Jurkat lymphocytes in DMEM medium as determined using Alamar Blue reaction. Effects on cytokine production are determined in J774 cells stimulated with either LPS (0.1 μg/mL) or medium from J774 cells stimulated for 24 h with 0.2 μg/mL LPS. Cytokines are determined by ELISA and expressed as % DMSO control at 50 μM inhibitor concentration.

S. aureus = experiment: Antibiotic dilution assay, S. aureus; type: cell-based; details: liquid medium, OD600, read-out: Bacterial IC 50 (μM) S. Aureus
Protocol: (§2) The antibiotic activity of the compounds was determined via antibiotic dilution assay. After filling 100 μl growth medium into all the wells of a 96 well plate, the compounds were diluted from 1 mM to 0.010 μM. The growth control wells contained growth medium instead of inhibitory agents. The inhibitory control contained Compound 3 (200 μM). Suspensions of E. coli and B. pumilus in growth medium with an approximate OD600 of 0.03-0.04 were added to the diluted compounds, incubated for 6-8 hours on the shaker at 750 rpm and 37° C. until the growth control had reached an OD600 of about 0.6-0.8. The OD600 was then determined on a standard plate reader.
as §1

E. coli = experiment: Antibiotic dilution assay, E. coli; type: cell-based; details: liquid medium, OD600, read-out: Bacterial IC 50 (μM) E. Coli
Protocol: as §2, §1

BALF TNFa = experiment: Airway inflammation by inhaled LPS, BALF TNFa by ELISA; type: in vivo, DBA or Swiss female mice; details: 30 minutes prior to LPS challenge
Protocol: as §1
Airway inflammation is induced by inhalation of solutions containing bacterial LPS. 10 μg per mouse is provided intranasally in phosphate buffered saline. 90 minutes after challenge, bronchioalveolar lavage fluid is recovered from the lung using PBS (0.5 mL) injected into the lung via the trachea and frozen prior to analysis for cytokines by ELISA. TNFa is the primary cytokine measured. Compound 2 and other test substances are dissolved in 0.02% citric acid in water, and the pH of the resulting solution is set to 6.2. Compounds are administered 30 minutes prior to challenge either as 25 μL solutions for intranasal use, or as 125 μL volumes for p.o. application in 25 g DBA or Swiss female mice. The results of said interventions include reduction of lung and/or plasma cytokines. Example data are recorded in FIG. 13.

Jurkat lymphocytes = experiment: In vitro toxicity: growth inhibition of Jurkat lymphocytes, Alamar Blue; type: cell-based; details: DMEM medium
Protocol: as §1

[2] = tested on: IL-10 production in J774 cells; experiment: Cytokine production in stimulated J774 cells, IL-10 (ELISA); type: cell-based; details: Normal (LPS 0.1 μg/mL)
Protocol: as §1

[3] = tested on: GM_CSF production in J774 cells; experiment: Cytokine production in stimulated J774 cells, GM-CSF (ELISA); type: cell-based; details: Cond. (medium from J774 cells stimulated 24 h with 0.2 μg/mL LPS)
Protocol: as §1

[4] = tested on: TNFa production in J774 cells; experiment: Cytokine production in stimulated J774 cells, TNFa (ELISA); type: cell-based; details: Normal (LPS 0.1 μg/mL)
Protocol: as §1

Jurkat = experiment: Cytotoxicity of the substances (TC50), Jurkat; type: cell-based; details: Jurkat cells
HeLa = experiment: Cytotoxicity of the substances (TC50), HeLa; type: cell-based; details: HeLa cells

SMILES | Cytokine production in J774 cells as % DMSO control, IL-12 Normal 50 μM [1] [% DMSO control] | IC50 (S. aureus; Staphylococcus aureus) [µM] | IC50 (E. coli; Escherichia coli) [µM] | BALF TNFa (% Vehicle) 20 μmol/kg i.n. (BALF TNFa) [% Vehicle] | BALF TNFa (% Vehicle) 200 μmol/kg p.o. (BALF TNFa) [% Vehicle] | Jurkat Cell toxicity Normal growth limit (Jurkat lymphocytes) [µM] | Cytokine production in J774 cells as % DMSO control, IL-10 Normal 50 μM [2] [% DMSO control] | Cytokine production in J774 cells as % DMSO control, GM_CSF Cond. 50 μM [3] [% DMSO control] | Cytokine production in J774 cells as % DMSO control, TNFa Normal 50 μM [4] [% DMSO control] | TC50 Jurkat (Jurkat) [µM] | IC50 (S. aureus) [µM] | IC50 (E. coli) [µM] | TC50 HeLa (HeLa) [µM]
CC[C@H]1OC(=O)[C@H](C)[C@@]2(O)O[C@@](C)(C[C@@H](C)CN[C@H](C)[C@@H](O)[C@]1(C)O)[C@H](O[C@@H]1O[C@H](C)C[C@H](NC)[C@H]1O)[C@H]2C [Compound 14] | 143 | 1950 | 1320 | 62 | 95 | 100 | 95 | 153 | 93 | – | – | – | –
CCOC(=O)CC1(C)C(=O)O[C@H](CC)[C@@](C)(O)[C@H](O)[C@@H](C)N(C)C[C@H](C)C[C@]2(C)O[C@@]1(O)[C@H](C)[C@H]2O[C@@H]1O[C@H](C)CC(N(C)C)[C@H]1O (some centres unmarked) [Compound 5, [14-(4-Dimethylamino-3-hydroxy-6-methyl-tetrahydro-pyran-2-yloxy)-5-ethyl-1,6,7-trihydroxy-2,6,8,9,11,13,15-heptamethyl-3-oxo-4,16-dioxa-9-aza-bicyclo[11.2.1]hexadec-2-yl]-acetic acid ethyl ester] | 7 | 2600 | 980 | 90 | – | 100 | 95 | 114 | 39 | > 100 | – | – | –
CCCCCCCCC=CCCCCCCCC(=O)OC1C(OC2C(C)C(=O)C(C)C(=O)OC(CC)C(C)(O)C(OC(=O)CCCCCCCC=CCCCCCCCC)C(C)N(C)CC(C)CC2(C)O)OC(C)CC1N(C)C (centres unmarked) [Compound 9b] | 76 | – | – | 112 | – | 100 | 123 | 53 | 89 | – | 2500 | 1950 | –
CC[C@H]1OC(=O)[C@H](C)C(O)[C@H](C)[C@@H](O[C@@H]2O[C@H](C)CC([N+](C)(C)[O-])[C@H]2O)[C@](C)(O)C[C@@H](C)C[N+](C)([O-])[C@H](C)[C@@H](O)[C@]1(C)O (some centres unmarked) [Compound 5b] | 67 | 1920 | 1090 | 56 | – | 100 | 116 | 81 | 88 | – | – | – | –
CCC1OC(=O)C(C)C2(O)OC(C)(CC(C)CN(C)C(C)C(=O)C1(C)O)C(OC1OC(C)CC(N(C)C)C1O)C2C (centres unmarked) [Compound 4, 14-(4-Dimethylamino-3-hydroxy-6-methyl-tetrahydro-pyran-2-yloxy)-5-ethyl-1,6-dihydroxy-2,6,8,9,11,13,15-heptamethyl-4,16-dioxa-9-aza-bicyclo[11.2.1]hexadecane-3,7-dione] | – | – | – | – | – | – | – | – | – | > 100 | – | – | > 100
CC[C@H]1OC(=O)[C@H](C)[C@@H](O[C@H]2C[C@@](C)(OC)[C@@H](O)[C@H](C)O2)[C@H](C)[C@@H](O[C@@H]2O[C@H](C)C[C@H](N(C)C)[C@H]2O)[C@](C)(O)C[C@@H](C)CN(C)[C@H](C)[C@@H](O)[C@]1(C)O [Compound 3, 9a-aza-9a-methyl-9-deoxo-9a-homoerythromycin A, reference compound] | 60 | 2.25 | 5.5 | 75 | – | 100 | 122 | 118 | 96 | > 100 | – | – | > 100
CC[C@H]1OC(=O)[C@H](C)C(O)[C@H](C)[C@@H](O[C@@H]2O[C@H](C)C[C@H](N(C)C)[C@H]2O)/C(C)=C/[C@@H](C)CN(C)[C@H](C)[C@@H](O)[C@]1(C)O (some centres unmarked) [Compound 13] | 47 | – | – | 78 | – | 100 | 98 | 193 | 99 | – | 1570 | 2140 | –
CC[C@H]1OC(=O)[C@H](C)C(=O)[C@H](C)[C@@H](O[C@@H]2O[C@H](C)CC(N(C)C)[C@H]2O)[C@](C)(O)C[C@@H](C)CN(C)[C@H](C)[C@H]2OC(=O)O[C@@]21C (some centres unmarked) [Example 10] | 40 | 1600 | 1350 | 99 | – | 100 | 118 | 14 | 72 | – | – | – | –
CC[C@H]1OC(=O)[C@H](C)C(=O)[C@H](C)[C@@H](O[C@@H]2O[C@H](C)CC(N(C)C)[C@H]2OC(C)=O)[C@](C)(O)C[C@@H](C)CN(C)[C@H](C)[C@@H](O)[C@]1(C)O (some centres unmarked) [Compound 8] | 45 | 1970 | 1270 | 81 | 67 | 100 | 134 | 83 | 85 | – | – | – | –
CCC1OC(=O)C(C)C(=O)C(C)C(OC2OC(C)CC(NC)C2O)C(C)(O)CC(C)CN(C)C(C)C(O)C1(C)O (centres unmarked) [Compound 11] | 53 | – | – | 80 | 98 | 100 | 96 | 174 | 86 | – | 2340 | 1090 | –
